# Reference: PubChem BioAssay AID588841 (The Scripps Research Institute Molecular Screening Center, 2011)
# The source made the active and inactive calls.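 How the source made its calls: active means EC50 at or below 10 µM; inactive means the rest.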
# Biological target: cAMP-dependent protein kinase type II-beta regulatory subunit (Homo sapiens) + cAMP-dependent protein kinase catalytic subunit beta (Mus musculus) (UniProt P31323+P68181)
# Assay: PKA-R2B holoenzyme activators, late-stage follow-up, biochemical, fluorescence polarization, powder samples (AID 588841)
# Conditions: PKA-R2B holoenzyme dissociation, Cy5-IP20 fluorescence polarization
row,Compound,EC50
1,O=C(O)c1sccc1NC(=O)c1c(Cl)cccc1Cl,> 100 µM (inactive)
2,COC(=O)c1sc2ncccc2c1OCc1ccc(Cl)cc1Cl,> 100 µM (inactive)
3,O=C(O)c1sccc1SCc1ccc(Cl)cc1Cl,> 100 µM (inactive)
4,Cc1csc(C(=O)O)c1NC(=O)c1ccc(F)cc1,> 100 µM (inactive)
5,COC(=O)c1sc2ncccc2c1OCc1ccccc1Cl,> 100 µM (inactive)
6,O=C(O)c1sc2ncccc2c1OCc1ccccc1,> 100 µM (inactive)
7,O=C(O)c1sccc1SCc1ccc(Cl)c(Cl)c1,> 100 µM (inactive)
8,CC(C)(C)c1ccc(COc2ccsc2C(=O)O)cc1,> 100 µM (inactive)
9,Cc1ccc(COc2ccsc2C(=O)O)cc1,> 100 µM (inactive)
